According to patent publication US10039839B2, “Compounds that participate in cooperative binding and uses thereof” (Warp Drive Bio, Inc., priority 2015, dated 2018):
Square brackets hold non-standard residues; d marks the D form. Peptide text beside a SMILES is read from it. MeBmt = C/C=C/C[C@@H](C)[C@@H](O)[C@H](NC)C(=O)O; NMeY = CN[C@@H](Cc1ccc(O)cc1)C(=O)O; NMeF = CN[C@@H](Cc1ccccc1)C(=O)O; NMeI = CC[C@H](C)[C@H](NC)C(=O)O; NMeL = CN[C@@H](CC(C)C)C(=O)O; Tle = CC(C)(C)[C@H](N)C(=O)O; NMeNva = CCC[C@H](NC)C(=O)O; NMeV = CN[C@H](C(=O)O)C(C)C; NMeA = CN[C@@H](C)C(=O)O; dNMeA = CN[C@H](C)C(=O)O; Abu = CC[C@H](N)C(=O)O; Sar = CNCC(=O)O

Each compound was assayed against T1, Cyclophilin A (Homo sapiens, UniProt P62937) (assay: biochemical). Settings: not given.
T1 construct: made in house
T1 sequence (P62937 whole entry, species assumed): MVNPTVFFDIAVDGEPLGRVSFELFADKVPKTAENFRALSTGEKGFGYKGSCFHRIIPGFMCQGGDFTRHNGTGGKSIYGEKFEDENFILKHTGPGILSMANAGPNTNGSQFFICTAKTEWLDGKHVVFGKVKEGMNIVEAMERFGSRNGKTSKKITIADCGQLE
Assay type: binding
Experimental: This protocol utilizes Perkin Elmers AlphaLISA technology platform to detect cyclosporine analogues by measuring the inhibition of binding of biotinylated Cyclosporin A to FLAG tagged Cyclophilin A.
Add 20 uL of 6 nM Biotinylated CsA working stock to each well of the 96-well plate. Add 1 uL of test compound (100% DMSO) to each well of the plate using the Janus MTD head and P20 tips (except control wells). Add 1 uL of DMSO to negative control wells and 1 uL of 500 uM Cyclosporin A solution to positive control wells. In the dark, add 20 uL of combined Donor/Acceptor beads to each well. Incubate in the dark for 30 minutes at room temperature. […] Incubate in the dark for 60 minutes at room temperature.

Structure (SMILES)	% inhibition of CsA binding to Cyclophilin A
C/C=C/C[C@@H](C)[C@@H](O)[C@H]1C(=O)N[C@@H](CC)C(=O)N(C)CC(=O)N(C)[C@@H]([C@@H](C)CC)C(=O)N[C@@H](C(C)C)C(=O)N(C)CC(=O)N[C@@H](C)C(=O)N[C@H](C)C(=O)N(C)[C@@H](CC(C)C)C(=O)N(C)[C@@H](CC(C)C)C(=O)N(C)[C@@H](C(C)C)C(=O)N1C [C25] (cyclo([MeBmt][Abu][Sar][NMeI]V[Sar]A[dA][NMeL][NMeL][NMeV]))	99.63%
C/C=C/C[C@@H](C)[C@@H](O)[C@H]1C(=O)N[C@@H](CC)C(=O)N(C)CC(=O)N(C)CC(=O)N[C@@H](C(C)C)C(=O)N(C)CC(=O)N[C@@H](C)C(=O)N[C@H](C)C(=O)N(C)[C@@H](CC(C)C)C(=O)N(C)[C@@H](CC(C)C)C(=O)N(C)[C@@H](C(C)C)C(=O)N1C [C29] (cyclo([MeBmt][Abu][Sar][Sar]V[Sar]A[dA][NMeL][NMeL][NMeV]))	98.77%
C/C=C/C[C@@H](C)[C@@H](O)[C@H]1C(=O)N[C@@H](CC)C(=O)N(C)CC(=O)N(C)[C@H](C)C(=O)N[C@@H](C(C)C)C(=O)N(C)[C@@H](C)C(=O)N[C@@H](CC(C)C)C(=O)N[C@H](C)C(=O)N(C)[C@@H](CC(C)C)C(=O)N(C)[C@@H](CC(C)C)C(=O)N(C)[C@@H](C(C)C)C(=O)N1C [C83] (cyclo([MeBmt][Abu][Sar][dNMeA]V[NMeA]L[dA][NMeL][NMeL][NMeV]))	99.35%
C/C=C/C[C@@H](C)[C@@H](O)[C@H]1C(=O)N[C@@H](CC)C(=O)N(C)CC(=O)N(C)[C@@H](Cc2ccc(O)cc2)C(=O)N[C@@H](C(C)C)C(=O)N(C)[C@@H](CC(C)C)C(=O)N[C@@H](CC)C(=O)N[C@H](C)C(=O)N(C)[C@@H](CC(C)C)C(=O)N(C)[C@@H](CC(C)C)C(=O)N(C)[C@@H](C(C)C)C(=O)N1C [C100] (cyclo([Abu][Sar][NMeY]V[NMeL][Abu][dA][NMeL][NMeL][NMeV][MeBmt]))	95.72%
C/C=C/C[C@@H](C)[C@@H](O)[C@H]1C(=O)N[C@@H](CC)C(=O)N(C)CC(=O)N(C)[C@H](C)C(=O)N[C@@H](C(C)C)C(=O)N(C)[C@@H](CC(C)C)C(=O)N[C@@H](CC(C)C)C(=O)N[C@H](C)C(=O)N(C)[C@@H](CC(C)C)C(=O)N(C)[C@@H](CC(C)C)C(=O)N(C)[C@@H](C(C)C)C(=O)N1C [C47] (cyclo([MeBmt][Abu][Sar][dNMeA]V[NMeL]L[dA][NMeL][NMeL][NMeV]))	95.71%
C/C=C/C[C@@H](C)[C@@H](O)[C@H]1C(=O)N[C@@H](CC)C(=O)N(C)CC(=O)N(C)[C@@H](CC(C)C)C(=O)N[C@@H](CC(C)C)C(=O)N(C)[C@@H](C)C(=O)N[C@@H](C)C(=O)N[C@H](C)C(=O)N(C)[C@@H](CC(C)C)C(=O)N(C)[C@@H](CC(C)C)C(=O)N(C)[C@@H](C(C)C)C(=O)N1C [C14] (cyclo([MeBmt][Abu][Sar][NMeL]L[NMeA]A[dA][NMeL][NMeL][NMeV]))	90.64%
C/C=C/C[C@@H](C)[C@@H](O)[C@H]1C(=O)N[C@@H](CC)C(=O)N(C)CC(=O)N(C)[C@H](C)C(=O)N[C@@H](C(C)C)C(=O)N(C)CC(=O)N[C@@H](C)C(=O)N[C@H](C)C(=O)N(C)[C@@H](CC(C)C)C(=O)N(C)[C@@H](CC(C)C)C(=O)N(C)[C@@H](C(C)C)C(=O)N1C [C27] (cyclo([MeBmt][Abu][Sar][dNMeA]V[Sar]A[dA][NMeL][NMeL][NMeV]))	94.73%
C/C=C/C[C@@H](C)[C@@H](O)[C@H]1C(=O)N[C@@H](CC)C(=O)N(C)CC(=O)N(C)[C@@H](C(C)C)C(=O)N[C@@H](C(C)(C)C)C(=O)N(C)[C@@H](C)C(=O)N[C@@H](CC(C)C)C(=O)N[C@H](C)C(=O)N(C)[C@@H](CC(C)C)C(=O)N(C)[C@@H](CC(C)C)C(=O)N(C)[C@@H](C(C)C)C(=O)N1C [C77] (cyclo([MeBmt][Abu][Sar][NMeV][Tle][NMeA]L[dA][NMeL][NMeL][NMeV]))	99.56%
C/C=C/C[C@@H](C)[C@@H](O)[C@H]1C(=O)N[C@@H](CC)C(=O)N(C)CC(=O)N(C)[C@@H](Cc2ccccc2)C(=O)N[C@@H](C(C)C)C(=O)N(C)CC(=O)N[C@@H](C)C(=O)N[C@H](C)C(=O)N(C)[C@@H](CC(C)C)C(=O)N(C)[C@@H](CC(C)C)C(=O)N(C)[C@@H](C(C)C)C(=O)N1C [C28] (cyclo([MeBmt][Abu][Sar][NMeF]V[Sar]A[dA][NMeL][NMeL][NMeV]))	98.94%
C/C=C/C[C@@H](C)[C@@H](O)[C@H]1C(=O)N[C@@H](CC)C(=O)N(C)CC(=O)N(C)[C@@H](CCC)C(=O)N[C@@H](C(C)C)C(=O)N(C)[C@@H](CC(C)C)C(=O)N[C@@H](CC)C(=O)N[C@H](C)C(=O)N(C)[C@@H](CC(C)C)C(=O)N(C)[C@@H](CC(C)C)C(=O)N(C)[C@@H](C(C)C)C(=O)N1C [C102] (cyclo([Abu][Sar][NMeNva]V[NMeL][Abu][dA][NMeL][NMeL][NMeV][MeBmt]))	99.30%

Same assay, conditions: read-out: IC50 value of CsA binding to Cyclophilin A

Structure (SMILES)	IC50
C/C=C/C[C@@H](C)[C@@H](O)[C@H]1C(=O)N[C@@H](CC)C(=O)N(C)CC(=O)N(C)[C@H](C)C(=O)N[C@@H](C(C)C)C(=O)N(C)[C@@H](CC(C)C)C(=O)N[C@@H](CC(C)C)C(=O)N[C@H](C)C(=O)N(C)[C@@H](CC(C)C)C(=O)N(C)[C@@H](CC(C)C)C(=O)N(C)[C@@H](C(C)C)C(=O)N1C [C47] (cyclo([MeBmt][Abu][Sar][dNMeA]V[NMeL]L[dA][NMeL][NMeL][NMeV]))	< 2 µM
